Test results as given in patent US20240415814A1, “PHARMACEUTICAL COMPOSITION COMPRISING 1-(3-CYANO-1-ISOPROPYL-INDOL-5-YL)PYRAZOLE-4-CARBOXYLIC ACID” (LG CHEM, LTD., priority 2021, published 2024).
Where two headings read alike, the source gives them in different places.

Assays:
Type in all cases: in vivo, human
[1] = Phase 2 clinical trial: analysis of TEAEs
Method: Selected patients gave written informed consent according to institutional and study procedures. After screening and wash-out processes (days 26 to 33 pre-dose), a total of 156 patients were finally enrolled, and each patient was randomly assigned to 5 groups of 50 mg, 100 mg and 200 mg dosing groups of the compound of Example 1, a placebo group, and a febuxostat group. Patients in each group self-administered 1 tablet of a combination drug (colchicine, 0.6 mg/day) for the prevention of gout flare along with the assigned investigational drug (50 mg, 100 mg and 200 mg doses of the compound of Example 1, placebo, and 40 mg of febuxostat group) orally, once every morning, at about the same time each day, with water, regardless of food.
When ULT is performed using a xanthine oxidase inhibitor compound, since there is a high possibility of gout flare as the tophi dissolves at the end of the bone during the initial treatment period, it was designed to be used in combination with colchicine for the purpose of inhibiting it. The drug was administered for 84 days by setting the first dosing day of the drug as day 1, and basic tests, serum uric acid concentration and the like were measured at clinic visits on 14 days (week 2), 28 days (week 4), 56 days (week 8), and 84 days (week 12) during the dosing period to determine whether TEAEs occurred. After the end of drug administration, a safety follow-up was performed for an additional 2 weeks (98 days, week 14).
Among all patient groups participating in the clinical trial, although the administration was stopped for 3 patients due to headache, gout flare in the left ankle, and liver dysfunction in the 100 mg dosing group of Example 1 and for 1 patient due to an increase in hepatic enzyme in the 200 mg dosing group, no significant treatment emergency adverse event (TEAE) was found in the remaining patient groups.

[2] = Pharmacokinetics according to renal function of patients; settings: for AUC(0-t) / AUC / Cmax: both sexes, human, plasma, oral, 200 mg, 200 mg once daily, Day 7, plasma; for AUC(0-t): read-out: AUC0-t (AUC0-48 h), geometric LS mean; for AUC: read-out: AUCtau, geometric LS mean; for Cmax: read-out: Cmax, ss, geometric LS mean
Method: (§1) PK and PD of the compound of Example 1 were assessed under patient groups with various degrees of renal function. […] A total of 37 patients were classified into 4 groups as follows based on renal function according to eGFR which was calculated by MDRD formula: • Normal: eGFR≥90 mL/min/1.73 m^2, n=13 • Mild (mild renal function impairment): eGFR 60-less than 90 mL/min/1.73 m^2, n=8 • Moderate (moderate renal function impairment): eGFR 30-less than 60 mL/min/1.73 m^2, n=8 • Severe (severe renal function impairment): eGFR<30 mL/min/1.73 m^2 and not on hemodialysis, n=8
(§2) Blood and urine samples were collected before dosing and up to 24 or 48 hours after the final dosing for PK/PD assessment.
For the compound of Example 1, statistical analysis of pharmacokinetic parameters using an ANOVA model for the pharmacokinetic population is shown in Table 2 below. The ANOVA model was fitted to the log-transformed PK parameters, with renal function impairment group fitted as a fixed effect. Point estimates and 90% CIs for differences between the least square means on the log scale were exponentiated to express the results as ratios of geometric means and CIs on the original scale.

[3] = system: serum uric acid; assay: Pharmacodynamics (serum uric acid) according to renal function of patients; settings: for AUEC0-24 of serum uric acid (baseline corrected), geometric LS mean / Cmean, 24 of serum uric acid (baseline corrected), geometric LS mean / Emax of serum uric acid (baseline corrected), geometric LS mean: 200 mg once daily, Day 7
Method: as §1, §2
An analysis of variance (ANOVA) model was fitted to the log-transformed baseline corrected PD parameters, with renal function impairment group fitted as a fixed effect. Point estimates and 90% CIs for differences between the least square means on the log scale were exponentiated to express the results as ratios of geometric means and CIs on the original scale.

[4] = normal renal function (control)

## CC(C)n1cc(C#N)c2cc(-n3cc(C(=O)O)cn3)ccc21 [Example 1, 1-(3-cyano-1-isopropyl-indol-5-yl)pyrazol-4-carboxylic acid]
[1]; 50 mg, 100 mg and 200 mg groups versus placebo and febuxostat groups
  incidence of TEAEs: showed no difference from the placebo group and the febuxostat group in the overall TEAE
[1]; 100 mg dosing group
  patients for whom administration was stopped (headache, gout flare in the left ankle, liver dysfunction): 3 patients
[1]; 200 mg dosing group
  patients for whom administration was stopped (increase in hepatic enzyme): 1 patient
[2]; Mild/Normal
  AUC0-t, ratio of geometric LS means: 1.23
  AUCtau, ratio of geometric LS means: 1.23
  Cmax, ss, ratio of geometric LS means: 1.32
[2]; Moderate/Normal
  AUC0-t, ratio of geometric LS means: 1.19
  AUCtau, ratio of geometric LS means: 1.17
  Cmax, ss, ratio of geometric LS means: 1.15
[2]; Severe/Normal
  AUC0-t, ratio of geometric LS means: 1.16
  AUCtau, ratio of geometric LS means: 1.26
  Cmax, ss, ratio of geometric LS means: 0.885
[2]; mild impairment
  AUC(0-t): 36500 ng·h/mL
  AUC: 38100 ng·h/mL
  Cmax: 7460 ng/mL
[2]; moderate impairment
  AUC(0-t): 35200 ng·h/mL
  AUC: 36100 ng·h/mL
  Cmax: 6490 ng/mL
[2]; [4]
  AUC(0-t): 29700 ng·h/mL
  AUC: 30900 ng·h/mL
  Cmax: 5640 ng/mL
[2]; severe impairment
  AUC(0-t): 34300 ng·h/mL
  AUC: 38900 ng·h/mL
  Cmax: 4990 ng/mL
[3]; Mild/Normal
  AUEC0-24, ratio of geometric LS means: 0.980
  Cmean, 24, ratio of geometric LS means: 0.988
  Emax, ratio of geometric LS means: 0.979
[3]; Moderate/Normal
  AUEC0-24, ratio of geometric LS means: 1.02
  Cmean, 24, ratio of geometric LS means: 1.03
  Emax, ratio of geometric LS means: 1.02
[3]; Severe/Normal
  AUEC0-24, ratio of geometric LS means: 1.05
  Cmean, 24, ratio of geometric LS means: 1.03
  Emax, ratio of geometric LS means: 0.911
[3]; across all renal function impairment groups versus normal
  GLSMRs for Cmean,24, Emax and AUEC0-24 of sUA: approximately 1
[3]; mild impairment
  AUEC0-24 of serum uric acid (baseline corrected), geometric LS mean: 111 mg·h/dL
  Cmean, 24 of serum uric acid (baseline corrected), geometric LS mean: 4.53 mg/dL
  Emax of serum uric acid (baseline corrected), geometric LS mean: 4.43 mg/dL
[3]; moderate impairment
  AUEC0-24 of serum uric acid (baseline corrected), geometric LS mean: 115 mg·h/dL
  Cmean, 24 of serum uric acid (baseline corrected), geometric LS mean: 4.74 mg/dL
  Emax of serum uric acid (baseline corrected), geometric LS mean: 4.63 mg/dL
[3]; [4]
  AUEC0-24 of serum uric acid (baseline corrected), geometric LS mean: 113 mg·h/dL
  Cmean, 24 of serum uric acid (baseline corrected), geometric LS mean: 4.59 mg/dL
  Emax of serum uric acid (baseline corrected), geometric LS mean: 4.52 mg/dL
[3]; severe impairment
  AUEC0-24 of serum uric acid (baseline corrected), geometric LS mean: 119 mg·h/dL
  Cmean, 24 of serum uric acid (baseline corrected), geometric LS mean: 4.72 mg/dL
  Emax of serum uric acid (baseline corrected), geometric LS mean: 4.12 mg/dL
